Source: patent US7803764B2, “Amphipathic glycopeptides” (The Arizona Board of Regents on Behalf of the University of …, priority 2004, dated 2010)
pIC50, pKd: −log10 of the molar value. Entries after “also recorded” stand apart in the source; their conditions may differ.

Tests used:
[1] = blood-brain barrier uptake / penetration; settings: mice
[2] = helicity by circular dichroism; type: physicochemical
Procedure: Circular Dichroism. All of the circular dichroism experiments were carried out on Aviv Associates model 60DS using an Endcal Model RTE4DD water circulator as a temperature-control vehicle. The instrument was calibrated by using d-10-camphorsulphonic acid. The spectra were recorded between 200 and 250 nm by using the continuous mode with a 1.5 nm bandwidth, a three second response and a scan step of 0.5 nm in a cell with a path length of 0.1 cm. Three or five scans were accumulated and averaged for each spectrum. Glycopeptide stock solutions were prepared by weighing the required amount, using Cahn/Ventron Instruments Model 21 automatic analytical electrobalance, to make 1 mL of a 0.5-1.0 mM solution and the pH was adjusted to the desired value. Samples were prepared by diluting the stock solution to 70-80 μM. All observed spectra were baseline-subtracted and smoothed by adjacent average of 5 points using Microcal Origin Ver. 5.0 software (Microcal Software Inc, USA). The molar ellipticities were determined using the formula [θ]=[θ]obs·(MRW)/10·l·C, where [θ]obs observed ellipticity in millidegrees, MRW is the mean residue weight, l is the cell path length in centimeters and C is the glycopeptide concentration in mg/mL. The percent α-helicity was determined by using the formula % helix=[θ]n→π*/−40,000 (1−2.5/n)·100, where n represents the number of amide bonds (including the C-terminal amide) in the glycopeptide and [θ]n→π** is molar ellipticity of n→π* transition band at 222 nm.^55
Conformational Analysis by CD. Circular dichroism (CD) is a powerful and simple tool for identifying secondary structure in both peptides and proteins.^64 All the peptides were subjected to CD analysis in H2O, TFE-H2O mixtures, SDS micelles and phospholipid bicelles. In H2O, a negative band near 200 nm is observed that arises from the π→π* electronic transition and is typical of random coil peptides. […] This behavior is explained as nascent helices.^65 In these nascent helices, helix CD signals could be induced by the addition of TFE.^66 All the glycopeptides gave an increased helix CD signal in TFE. The percentage of helicity increases as TFE concentration increases, but reached a maximum at 30% TFE. The increase in helicity in TFE can be attributed to decreased competition by H2O for hydrogen bonding to the backbone amides. […] In the presence of SDS micelles and anionic bicelles, the band at 200 nm underwent a red shift (higher value) and an additional shoulder appears around 222 nm as a result of the n→π* transition. […] The negative maxima at 222 nm (n→π* transition band) is used to calculate the helical content of polypeptides and proteins. The accepted value for a peptide that is 100% helical is approximately −35,000. It was observed that changes in amplitude of the bands up to 30% depend on length of helix.^67 The amplitude increases as α-helical chain length increases. Therefore, one has to consider the importance of chain-length dependence of the α-helix CD in the quantitative treatment of helix content in proteins and polypeptides. The percentage of helicity is independent of SDS concentration and pH (data not shown). In the presence of zwitterionic bicelles all of the glycopeptides yielded CD spectra similar to that observed in H2O, but anionic bicelles forced them to become more helical. The intensities of the [θ]π→π* band and the [θ]n→π* band are expected to be almost equal for a perfect α-helical peptide. […] A modest blue shift and reduced intensity for the [θ]n→π* transition bands are observed for all the glycopeptides in TFE. […] The glycopeptides 9 (Pro/Glc) and 12 (Pro/Lactose), which differ only by the sugar moiety attached, adopt perfect helices in the presence of SDS micelles and in anionic bicelles. The disaccharide increased the percentage of helicity in all the solvents, relative to the monosaccharide. […] It is remarkable to note that a single amino acid mutation at position 6 produced profound changes in the CD spectra. […]

[3] = in vivo antinociception after i.c.v. administration; design: species or system mice; settings: i.c.v., mice, antinociception
[4] = helicity by NMR αCH chemical shift index; type: physicochemical
Procedure: NMR Spectroscopy. All NMR spectra were recorded on a Bruker DRX600 600 MHz spectrometer. Glycopeptide concentration for the NMR experiments varied from 2-3 mM. The glycopeptides were prepared in TFE-water solution by dissolving the peptide in 0.6 ml solution of a premixed 30% TFE-water mixture. The micelle samples were prepared by dissolving the glycopeptide and 100 equivalent of perdeuterated SDS in 0.6 ml of H2O/D2O (9:1 ratio by volume). Bicelles were produced from deuterated phospholipids. The zwitterionic bicelles were made by mixing the short chain phospholipid dihexanoyl-sn-glycero-3-phosphatidylcholine-d22 (DHPC) and the long chain 1,2-dimyristoyl-sn-glycero-3-phosphatidylcholine-d54 (DMPC) in the molar ratio of 2:1 in H2O. The […] were prepared by substituting 10 mol % of 1,2-dimyristoyl-sn-glycero-3-phospho-1-glycerol-d54 (DMPG) for DMPC. The glycopeptide to bicelle ratio was 1:25. After the glycopeptide was added to the bicelle solution, the system was submitted to a series o f three freeze/thaw/slight vortex shaking cycles. The pH of the each sample was adjusted to 4.5 by using DCl or NaOD as necessary. TSP (3-(trimethylsilyl)-d4-propionic acid) was added as an internal standard. The experiments in F3CCD2OD/H2O mixtures were at 293 K and for experiments in micelles/bicelles were at 298 or 311 K. Two-dimensional double quantum filtered correlation (DQF-COSY), rotating-frame Overhauser enhancement^56 (ROESY), Nuclear Overhauser enhancement^57 (NOESY), and total correlation spectra^58 (TOCSY) were acquired using standard pulse sequences and processed using XWINNMR (Bruker Inc) and FELIX2000 (Accelrys Inc, San Diego, Calif.), Mixing times for TOCSY spectra were either 80 or 100 ms. Mixing times for ROESY spectra were 150 or 250 ms, and for NOESY spectra were 200 or 300 ms. All experiments were 750 increments in t1, 16/32/64 scans each, 1.5 s relaxation delay, size 2 or 4K, and the spectral processing was with shifted sine bell window multiplications in both dimensions.
αCH Chemical Shift Index. […] At this point there is no accepted random coil αCH values for glycosylated serine, CSI values for this position are uncertain. The conformational shift values for all solvents were obtained using the random coil values described by Wright and co-workers.^72 Although, these reference shifts were obtained at pH=5.0 at 4.2° C., they appear to be very insensitive to the conditions, as very small deviations (±0.04) were observed when random coil values are obtained at pH=7.0 at 35° C. by Wuthrich and co-workers.^68 The quantification of secondary structure based on αCH chemical shifts is neglected in the literature because various contributions cannot be strictly accounted for, such as electrostatic effects, ring current shifts, and other magnetic anisotropies. However, it is possible to make qualitative comparison of helical content between closely related (glyco)peptides. Since the 3rd generation glycopeptides differ by only one amino acid at position 6, the helical content was obtained based on the αCH chemical shift values (Table 3). The method described by Gierasch and co-workers^69a was used. First, the average conformational shift was calculated for each glycopeptide by adding all upfield shifts in the helical regions and dividing by the total number of peptide bonds. Then, to obtain the overall helical content for each glycopeptide, the average conformational shift was divided by 0.35 ppm, which was assigned for 100% helicity. Since, there are no random coil values available for β-Alanine and glycosylated serine residues, they were not included in the calculation. The helicogenic Aib residue lacks an α-proton, and there was no correction included in the calculation for the helicity provided by Aib residue. The helical content obtained by this method correlated with the helical content obtained by CD. […]

μ opioid receptor = μ opioid receptor (Homo sapiens, UniProt P35372); assay: opioid receptor binding, μ receptor
μ opioid receptor, sequence (P35372 whole entry): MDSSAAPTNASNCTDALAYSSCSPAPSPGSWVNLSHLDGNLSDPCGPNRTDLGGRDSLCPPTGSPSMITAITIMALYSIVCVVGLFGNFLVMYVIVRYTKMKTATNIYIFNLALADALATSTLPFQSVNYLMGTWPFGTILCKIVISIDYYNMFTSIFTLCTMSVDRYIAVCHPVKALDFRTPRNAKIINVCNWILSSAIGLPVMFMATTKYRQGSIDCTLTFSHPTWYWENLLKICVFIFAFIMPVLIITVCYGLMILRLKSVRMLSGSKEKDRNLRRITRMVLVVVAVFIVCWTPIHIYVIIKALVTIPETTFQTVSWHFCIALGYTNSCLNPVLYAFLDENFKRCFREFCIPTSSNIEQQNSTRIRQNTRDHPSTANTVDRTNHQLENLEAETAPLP

[5] = Plasmon-waveguide resonance (PWR) binding to lipid bilayer; settings: egg PC bilayer, 25° C., read-out: dissociation constant KD for lipid bilayer
Procedure: Plasmon-waveguide resonance (PWR) spectroscopy. The PWR instrument used for these experiments was Aviv Beta prototype version device obtained from Proterion Corp. (Piscataway, N.J.) having a spectral resolution of 1 millidegree. Self-assembled so lid-supported lipid membranes were prepared according to the method used for the formation of freely suspended lipid bilayers.^62 This involves spreading a small amount of lipid solution across an orifice in a Teflon sheet that separates the thin dielectric film (SiO2) from the aqueous phase. The hydrophilic surface of hydrated SiO2 attracts the polar groups of the lipid molecules, thus inducing an initial orientation of the lipid molecules, with the hydrocarbon chains pointing toward the droplet of excess lipid solution. The next steps of bilayer formation, induced by adding aqueous buffer to the sample compartment of the PWR cell, involve a thinning process and the formation of a plateau-Gibbs border of lipid solution that anchors the membrane to the Teflon spacer. In the present experiments, the lipid films were formed from a solution containing 5 mg/ml egg phosphatidylcholine (PC) in squalene/butanol/methanol (0.05:9.5:0.5, v/v). […] Aliquots of the glycosylated peptides, dissolved in deionized water, were injected stepwise in the PWR cell sample and the signal monitored until equilibrium was reached (PWR signal steady). […]

δ opioid receptor = δ opioid receptor (Homo sapiens, UniProt P41143); assay: opioid receptor binding, δ receptor
δ opioid receptor, sequence (P41143 whole entry): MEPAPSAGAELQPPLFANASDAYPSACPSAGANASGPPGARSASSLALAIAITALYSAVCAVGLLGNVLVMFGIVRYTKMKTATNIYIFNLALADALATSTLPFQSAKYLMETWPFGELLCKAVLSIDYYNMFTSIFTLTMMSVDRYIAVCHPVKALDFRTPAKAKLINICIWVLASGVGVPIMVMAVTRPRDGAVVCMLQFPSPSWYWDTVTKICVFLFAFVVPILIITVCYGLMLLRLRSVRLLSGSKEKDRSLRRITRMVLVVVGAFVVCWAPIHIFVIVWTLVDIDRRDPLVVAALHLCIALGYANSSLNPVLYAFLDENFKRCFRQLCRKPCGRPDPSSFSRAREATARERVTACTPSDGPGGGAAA

CC(C)C[C@H](NC(=O)[C@H](CO[C@@H]1O[C@H](CO)[C@@H](O)[C@H](O)[C@H]1O)NC(=O)[C@H](CCCCN)NC(=O)[C@H](CC(C)C)NC(=O)[C@H](C)NC(=O)[C@H](CCCCN)NC(=O)[C@H](CCC(=O)O)NC(=O)C(C)(C)NC(=O)[C@H](CC(C)C)NC(=O)[C@H](CC(N)=O)NC(=O)CNC(=O)CNC(=O)[C@H](CC(C)C)NC(=O)[C@H](Cc1ccccc1)NC(=O)CNC(=O)[C@H](NC(=O)[C@@H](N)Cc1ccc(O)cc1)[C@H](C)O)C(N)=O (relative stereo) [Glycopeptide 11, YtGFLGGNLBEKALKS*L]
BBB uptake [1]: 0.002 microliters per min per gram of cortex
blood brain barrier penetration (in words) [1]: did not; also recorded: low BBB penetration rates
% α-helicity by CD ([2]; solvent Bicelle A (anionic bicelles)): 17%
% α-helicity by CD ([2]; solvent H2O): >1%
% α-helicity by CD ([2]; solvent SDS micelles): 17%
% α-helicity by CD ([2]; solvent TFE): 18%
A50 i.c.v. [3]: 0.030 nmol
% α-helicity by NMR ([4]; solvent H2O): 19%
% α-helicity by NMR ([4]; solvent SDS micelles): 39%
% α-helicity by NMR ([4]; solvent TFE): 28%
pIC50 (μ opioid receptor): 7.28
pKd [5]: 4.52
pIC50 (δ opioid receptor): 7.49
